# Laboratory results published in US10059701B2 (Merck Patent GmbH, priority 2015, dated 2018).
# Counter-ions that a name gives are not always drawn.
# Columns and labels:
# [1] = biological target: T1, IRAK1 (Homo sapiens, UniProt P51617); experiment: IRAK1 enzymatic assay (ADP-Glo luminescence); format: biochemical; conditions: purified human recombinant His-TEV-IRAK1 (194-712)
# T1 construct: His-TEV-IRAK1 (194-712); His (N); TEV cleavage site (N)
# Procedure, shortened: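 Recombinant human His-TEV-IRAK1 (194-712), 0.3 μg/ml, preincubated 15 min at RT with compounds (10 μM to 0.5 nM) in 50 mM Hepes pH 7.0, 10 mM MgCl2, 2 mM DTT, 0.1% BSA. ATP-started reaction run 2 hours at RT; ADP formed from ATP hydrolysis/autophosphorylation read by ADP-Glo luminescence.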
# [2] = biological target: T2, IRAK4 (Homo sapiens, UniProt Q9NWZ3); experiment: IRAK4 enzymatic assay (ADP-Glo luminescence); format: biochemical; conditions: purified human recombinant His-TEV-IRAK4 (1-460), ATP 2 μM
# T2 construct: His-TEV-IRAK4 (1-460); His (N); TEV cleavage site (N)
# T2 sequence (Q9NWZ3 1-460): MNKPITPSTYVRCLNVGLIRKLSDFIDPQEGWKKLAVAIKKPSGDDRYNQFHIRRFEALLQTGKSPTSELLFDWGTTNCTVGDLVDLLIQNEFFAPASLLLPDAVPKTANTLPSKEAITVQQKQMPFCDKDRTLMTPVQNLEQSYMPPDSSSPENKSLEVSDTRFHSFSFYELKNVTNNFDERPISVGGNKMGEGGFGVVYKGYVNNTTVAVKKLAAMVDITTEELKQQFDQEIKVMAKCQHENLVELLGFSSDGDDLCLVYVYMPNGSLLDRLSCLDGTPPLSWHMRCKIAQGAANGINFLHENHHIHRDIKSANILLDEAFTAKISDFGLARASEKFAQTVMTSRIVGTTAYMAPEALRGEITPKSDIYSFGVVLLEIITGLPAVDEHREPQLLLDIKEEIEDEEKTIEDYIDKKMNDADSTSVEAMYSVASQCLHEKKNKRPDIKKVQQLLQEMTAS
# Procedure, shortened: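 Recombinant His-TEV-IRAK4 (1-460) at 0.3 μg/ml preincubated 15 min at RT with compounds (10 μM to 0.5 nM) in Hepes pH 7.0 buffer with MgCl2/MnCl2. Reaction started with 2 μM ATP and 300 nM STK1-biotin peptide, run 2 h at RT. ADP formed read by ADP-Glo luminescence.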
# T1 sequence (P51617 194-712): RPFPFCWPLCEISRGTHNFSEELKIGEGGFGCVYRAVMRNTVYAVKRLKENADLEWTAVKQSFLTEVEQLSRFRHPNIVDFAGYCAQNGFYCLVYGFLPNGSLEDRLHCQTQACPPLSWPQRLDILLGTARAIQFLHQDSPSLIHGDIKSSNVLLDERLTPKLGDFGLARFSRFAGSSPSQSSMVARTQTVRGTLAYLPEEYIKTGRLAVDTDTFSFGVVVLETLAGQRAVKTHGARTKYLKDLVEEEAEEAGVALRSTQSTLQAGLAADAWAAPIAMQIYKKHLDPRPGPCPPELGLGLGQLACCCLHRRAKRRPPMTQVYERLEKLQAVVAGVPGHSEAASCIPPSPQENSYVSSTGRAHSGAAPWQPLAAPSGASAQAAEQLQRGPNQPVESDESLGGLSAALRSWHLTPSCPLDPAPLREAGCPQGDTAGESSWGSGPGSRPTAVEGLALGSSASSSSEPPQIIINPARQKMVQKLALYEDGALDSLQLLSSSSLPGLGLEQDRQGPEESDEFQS
SMILES,IC50 [1],IC50 [2]
"O=C(O)CCCn1/c(=N/C(=O)c2cccc(C(F)F)c2)[nH]c2cc(N3CCCOC3=O)ccc21 [Compound 169, (E)-4-(2-((3-(difluoromethyl)benzoyl)imino)-5-(2-oxo-1,3-oxazinan-3-yl)-2,3-dihydro-1H-benzo[d]imidazol-1-yl)butanoic acid]",> 1 µM,≤ 0.1 µM
"O=C(/N=c1\[nH]c2cc(N3CCCOC3=O)ccc2n1C1CCC1)c1cccc(C(F)(F)F)c1 [Compound 170, (E)-N-(1-cyclobutyl-5-(2-oxo-1,3-oxazinan-3-yl)-1H-benzo[d]imidazol-2(3H)-ylidene)-3-(trifluoromethyl)benzamide]",> 1 µM,≤ 0.1 µM
"O=C(/N=c1\[nH]c2cc(N3CCCOC3=O)ccc2n1C1CCCC1)c1cccc(C(F)(F)F)c1 [Compound 171, (E)-N-(1-cyclopentyl-5-(2-oxo-1,3-oxazinan-3-yl)-1H-benzo[d]imidazol-2(3H)-ylidene)-3-(trifluoromethyl)benzamide]",> 1 µM,≤ 0.1 µM
"O=C(/N=c1\[nH]c2cc(N3CCCOC3=O)ccc2n1C1CC1)c1cccc(C(F)(F)F)c1 [Compound 172, (E)-N-(1-cyclopropyl-5-(2-oxo-1,3-oxazinan-3-yl)-1H-benzo[d]imidazol-2(3H)-ylidene)-3-(trifluoromethyl)benzamide]",> 1 µM,≤ 0.1 µM
"CC(C)(C)Cn1/c(=N/C(=O)c2cccc(C(F)(F)F)c2)[nH]c2cc(N3CCCOC3=O)ccc21 [Compound 173, (E)-N-(1-neopentyl-5-(2-oxo-1,3-oxazinan-3-yl)-1H-benzo[d]imidazol-2(3H)-ylidene)-3-(trifluoromethyl)benzamide]",0.1 to 1 µM,≤ 0.1 µM
"O=C(/N=c1\[nH]c2cc(N3CCCOC3=O)ccc2n1CC1(C(=O)O)CC1)c1cccc(C(F)(F)F)c1 [Compound 174, (E)-1-((5-(2-oxo-1,3-oxazinan-3-yl)-2-((3-(trifluoromethyl)benzoyl)imino)-2,3-dihydro-1H-benzo[d]imidazol-1-yl)methyl)cyclopropanecarboxylic acid]",0.1 to 1 µM,≤ 0.1 µM
"C#CCn1/c(=N/C(=O)c2cccc(C(F)(F)F)c2)[nH]c2cc(N3CCCOC3=O)ccc21 [Compound 175, (E)-N-(5-(2-oxo-1,3-oxazinan-3-yl)-1-(prop-2-yn-1-yl)-1H-benzo[d]imidazol-2(3H)-ylidene)-3-(trifluoromethyl)benzamide]",0.1 to 1 µM,≤ 0.1 µM
"O=C(/N=c1\[nH]c2cc(N3CCCOC3=O)ccc2n1CCC(F)(F)F)c1cccc(C(F)(F)F)c1 [Compound 176, (E)-N-(5-(2-oxo-1,3-oxazinan-3-yl)-1-(3,3,3-trifluoropropyl)-1H-benzo[d]imidazol-2(3H)-ylidene)-3-(trifluoromethyl)benzamide]",0.1 to 1 µM,≤ 0.1 µM
"O=C(/N=c1\[nH]c2cc(N3CCCOC3=O)ccc2n1CC(F)(F)C(F)(F)F)c1cccc(C(F)(F)F)c1 [Compound 177, (E)-N-(5-(2-oxo-1,3-oxazinan-3-yl)-1-(2,2,3,3,3-pentafluoropropyl)-1H-benzo[d]imidazol-2(3H)-ylidene)-3-(trifluoromethyl)benzamide]",> 1 µM,≤ 0.1 µM
"CC(C)(F)Cn1/c(=N/C(=O)c2cccc(C(F)(F)F)c2)[nH]c2cc(N3CCCOC3=O)ccc21 [Compound 178, (E)-N-(1-(2-fluoro-2-methylpropyl)-5-(2-oxo-1,3-oxazinan-3-yl)-1H-benzo[d]imidazol-2(3H)-ylidene)-3-(trifluoromethyl)benzamide]",0.1 to 1 µM,≤ 0.1 µM
"CC(F)(F)Cn1/c(=N/C(=O)c2cccc(C(F)(F)F)c2)[nH]c2cc(N3CCCOC3=O)ccc21 [Compound 179, (E)-N-(1-(2,2-difluoropropyl)-5-(2-oxo-1,3-oxazinan-3-yl)-1H-benzo[d]imidazol-2(3H)-ylidene)-3-(trifluoromethyl)benzamide]",0.1 to 1 µM,≤ 0.1 µM
"O=C(/N=c1\[nH]c2cc(N3CCCOC3=O)ccc2n1CC1CCCOC1)c1cccc(C(F)(F)F)c1 (stereo not drawn) [Compound 180, (E)-N-(5-(2-oxo-1,3-oxazinan-3-yl)-1-((tetrahydro-2H-pyran-3-yl)methyl)-1H-benzo[d]imidazol-2(3H)-ylidene)-3-(trifluoromethyl)benzamide]",0.1 to 1 µM,≤ 0.1 µM
"O=C(/N=c1\[nH]c2cc(N3CCCOC3=O)ccc2n1CC1CCCCC1)c1cccc(C(F)(F)F)c1 [Compound 181, (E)-N-(1-(cyclohexylmethyl)-5-(2-oxo-1,3-oxazinan-3-yl)-1H-benzo[d]imidazol-2(3H)-ylidene)-3-(trifluoromethyl)benzamide]",> 1 µM,≤ 0.1 µM
"O=C(/N=c1\[nH]c2cc(N3CCN(C4CC4)CC3=O)ccc2n1CCCO)c1cccc(C(F)F)c1 [Compound 182, (E)-N-(5-(4-cyclopropyl-2-oxopiperazin-1-yl)-1-(3-hydroxypropyl)-1H-benzo[d]imidazol-2(3H)-ylidene)-3-(difluoromethyl)benzamide]",≤ 0.1 µM,≤ 0.1 µM
"O=C(/N=c1\[nH]c2cc(N3CCN(C4CC4)CC3=O)ccc2n1CCCO)c1cccc(C(F)(F)F)c1 [Compound 183, (E)-N-(5-(4-cyclopropyl-2-oxopiperazin-1-yl)-1-(3-hydroxypropyl)-1H-benzo[d]imidazol-2(3H)-ylidene)-3-(trifluoromethyl)benzamide]",≤ 0.1 µM,≤ 0.1 µM
"O=C(/N=c1\[nH]c2cc(N3CCN(C4CCC4)CC3=O)ccc2n1CCCO)c1cccc(C(F)F)c1 [Compound 184, (E)-N-(5-(4-cyclobutyl-2-oxopiperazin-1-yl)-1-(3-hydroxypropyl)-1H-benzo[d]imidazol-2(3H)-ylidene)-3-(difluoromethyl)benzamide]",≤ 0.1 µM,≤ 0.1 µM
"CC(C)N1CCN(c2ccc3c(c2)[nH]/c(=N\C(=O)c2cccc(C(F)F)c2)n3CCCO)C(=O)C1 [Compound 185, (E)-3-(difluoromethyl)-N-(1-(3-hydroxypropyl)-5-(4-isopropyl-2-oxopiperazin-1-yl)-1H-benzo[d]imidazol-2(3H)-ylidene)benzamide]",≤ 0.1 µM,≤ 0.1 µM
"O=C(/N=c1\[nH]c2cc(N3CCSCC3=O)ccc2n1CCCO)c1cccc(C(F)(F)F)c1 [Compound 186, (E)-N-(1-(3-hydroxypropyl)-5-(3-oxothiomorpholino)-1H-benzo[d]imidazol-2(3H)-ylidene)-3-(trifluoromethyl)benzamide]",0.1 to 1 µM,≤ 0.1 µM
"O=C(/N=c1\[nH]c2cc(N3CCSCC3=O)ccc2n1CCCO)c1cccc(C(F)F)c1 [Compound 187, (E)-3-(difluoromethyl)-N-(1-(3-hydroxypropyl)-5-(3-oxothiomorpholino)-1H-benzo[d]imidazol-2(3H)-ylidene)benzamide]",≤ 0.1 µM,≤ 0.1 µM
"Cn1cnn(-c2ccc3c(c2)[nH]/c(=N\C(=O)c2cccc(C(F)(F)F)c2)n3CCCO)c1=O [Compound 188, (E)-N-(1-(3-hydroxypropyl)-5-(4-methyl-5-oxo-4,5-dihydro-1H-1,2,4-triazol-1-yl)-1H-benzo[d]imidazol-2(3H)-ylidene)-3-(trifluoromethyl)benzamide]",0.1 to 1 µM,≤ 0.1 µM
"Cn1ncn(-c2ccc3c(c2)[nH]/c(=N\C(=O)c2cccc(C(F)(F)F)c2)n3CCCO)c1=O [Compound 189, (E)-N-(1-(3-hydroxypropyl)-5-(1-methyl-5-oxo-4,5-dihydro-1H-1,2,4-triazol-4(5H)-yl)-1H-benzo[d]imidazol-2(3H)-ylidene)-3-(trifluoromethyl)benzamide]",≤ 0.1 µM,≤ 0.1 µM
"O=C(/N=c1\[nH]c2cc(N3CCCCS3(=O)=O)ccc2n1CCCO)c1cccc(C(F)(F)F)c1 [Compound 190, (E)-N-(5-(1,1-dioxido-1,2-thiazinan-2-yl)-1-(3-hydroxypropyl)-1H-benzo[d]imidazol-2(3H)-ylidene)-3-(trifluoromethyl)benzamide]",0.1 to 1 µM,≤ 0.1 µM
"CC1(C)NCCN(c2ccc3c(c2)[nH]/c(=N\C(=O)c2cccc(C(F)(F)F)c2)n3CCCO)C1=O [Compound 191, (E)-N-(5-(3,3-dimethyl-2-oxopiperazin-1-yl)-1-(3-hydroxypropyl)-1H-benzo[d]imidazol-2(3H)-ylidene)-3-(trifluoromethyl)benzamide hydrochloride]",0.1 to 1 µM,≤ 0.1 µM
"O=C(/N=c1\[nH]c2cc(N3CCOCCC3=O)ccc2n1CCCO)c1cccc(C(F)(F)F)c1 [Compound 192, (E)-N-(1-(3-hydroxypropyl)-5-(5-oxo-1,4-oxazepan-4-yl)-1H-benzo[d]imidazol-2(3H)-ylidene)-3-(trifluoromethyl)benzamide]",0.1 to 1 µM,≤ 0.1 µM
